Columns and labels:
Assay in all cases: two-electrode voltage clamp, Xenopus oocytes
Assay type in all cases: cell-based
AgamOR8 = target: T1, AgamOR8 (Anopheles gambiae, UniProt Q7PUT5); settings: 0.1 uM to 0.1 mM; -80 mV, pH 7.4; inward current (agonist)
T1 sequence (Q7PUT5 1-399): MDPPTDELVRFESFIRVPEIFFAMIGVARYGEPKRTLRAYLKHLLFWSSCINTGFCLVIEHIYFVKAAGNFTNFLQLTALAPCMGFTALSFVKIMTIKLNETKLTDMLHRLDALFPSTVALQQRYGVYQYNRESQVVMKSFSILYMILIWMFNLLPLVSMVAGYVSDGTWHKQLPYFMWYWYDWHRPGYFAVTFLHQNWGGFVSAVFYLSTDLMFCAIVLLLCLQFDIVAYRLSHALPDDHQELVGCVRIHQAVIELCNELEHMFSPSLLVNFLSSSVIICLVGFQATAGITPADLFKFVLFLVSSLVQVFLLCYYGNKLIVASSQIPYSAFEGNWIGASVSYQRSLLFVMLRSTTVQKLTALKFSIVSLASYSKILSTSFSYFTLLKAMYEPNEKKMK
T1 sequence (Q7QCC7 1-478 partner): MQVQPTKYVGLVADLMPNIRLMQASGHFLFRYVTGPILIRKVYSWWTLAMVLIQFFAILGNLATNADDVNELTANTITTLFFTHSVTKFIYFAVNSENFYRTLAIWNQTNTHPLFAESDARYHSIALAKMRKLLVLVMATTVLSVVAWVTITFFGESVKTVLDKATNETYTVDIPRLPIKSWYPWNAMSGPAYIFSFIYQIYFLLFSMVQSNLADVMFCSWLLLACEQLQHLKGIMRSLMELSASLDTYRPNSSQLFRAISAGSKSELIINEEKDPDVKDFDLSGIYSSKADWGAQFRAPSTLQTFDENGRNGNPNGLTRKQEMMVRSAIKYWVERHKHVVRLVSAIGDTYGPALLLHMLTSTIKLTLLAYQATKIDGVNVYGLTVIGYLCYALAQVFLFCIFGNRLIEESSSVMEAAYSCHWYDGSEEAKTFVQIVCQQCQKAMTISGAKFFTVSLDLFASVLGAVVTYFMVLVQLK

AgamOR10/AgamOrco = target: T2, AgamOR10/AgamOrco (Anopheles gambiae, UniProt B5U0U7); settings: 0.01-1 mM; -80 mV, pH 7.4; outward (inhibitory) current
T2 sequence (B5U0U7 1-375): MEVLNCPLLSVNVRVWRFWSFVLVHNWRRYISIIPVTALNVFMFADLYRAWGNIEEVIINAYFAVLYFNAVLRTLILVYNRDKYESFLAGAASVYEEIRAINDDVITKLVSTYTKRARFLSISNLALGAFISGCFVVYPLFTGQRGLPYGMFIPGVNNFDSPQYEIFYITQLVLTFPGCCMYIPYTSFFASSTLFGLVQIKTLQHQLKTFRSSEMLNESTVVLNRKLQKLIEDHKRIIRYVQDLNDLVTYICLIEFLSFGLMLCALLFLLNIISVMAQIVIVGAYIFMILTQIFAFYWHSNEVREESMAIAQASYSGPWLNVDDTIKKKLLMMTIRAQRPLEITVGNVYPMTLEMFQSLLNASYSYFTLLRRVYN
T2 sequence (Q7QCC7 1-478 partner): T1 sequence (Q7QCC7 1-478 partner)

AgamOR40 = target: T3, AgamOR40 (Anopheles gambiae, UniProt Q7PR01); settings: 0.01-1 mM; -80 mV, pH 7.4; inward current (agonist)
T3 sequence (Q7PR01 1-454): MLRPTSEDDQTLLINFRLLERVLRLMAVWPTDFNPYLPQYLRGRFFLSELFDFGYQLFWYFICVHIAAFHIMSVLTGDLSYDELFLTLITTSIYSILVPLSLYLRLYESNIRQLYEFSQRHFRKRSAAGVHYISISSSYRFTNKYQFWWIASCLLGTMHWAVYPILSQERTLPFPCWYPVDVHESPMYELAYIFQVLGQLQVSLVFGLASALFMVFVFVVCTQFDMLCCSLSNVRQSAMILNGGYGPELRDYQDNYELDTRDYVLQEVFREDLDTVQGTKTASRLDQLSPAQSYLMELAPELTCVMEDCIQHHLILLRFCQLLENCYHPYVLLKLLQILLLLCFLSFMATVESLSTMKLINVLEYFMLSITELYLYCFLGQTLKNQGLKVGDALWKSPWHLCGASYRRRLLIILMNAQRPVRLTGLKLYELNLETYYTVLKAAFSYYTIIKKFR
T3 sequence (Q7QCC7 1-478 partner): T1 sequence (Q7QCC7 1-478 partner)

SMILES	two-electrode voltage clamp, Xenopus oocytes (AgamOR40)	also measured
C=CC(O)CCCCC (stereo not shown) [1-octen-3-ol]		two-electrode voltage clamp, Xenopus oocytes (AgamOR8): generated robust, dose-dependent inward currents in response to 1-octen-3-ol
CC/C=C\C[C@H]1C(=O)CC[C@@H]1CC(=O)OC [BDR-4, methyl jasmonate]		two-electrode voltage clamp, Xenopus oocytes (AgamOR10/AgamOrco): The strongest outward currents were obtained with BDR-4 (methyl jasmonate)
CCN(CC)C(=O)c1cccc(C)c1 [DEET]	generated dose-dependent inward currents in response to DEET as well as to its best ligand, fenchone	
CC12CCC(C1)C(C)(C)C2=O (stereo not shown) [fenchone]	generated dose-dependent inward currents in response to DEET as well as to its best ligand, fenchone	

From paper PMC6752049 (Insect biochemistry and molecular biology, 2019)
